Data on 5 compounds can be found in patent US6140333A, “N-acyl cyclic amine derivatives” (priority 1998, dated 2000).

Usually Kb stands for the equilibrium dissociation constant of an antagonist, usually derived from a functional assay. Low readings indicate higher antagonist affinity, high ones lower antagonist affinity. By Ki is commonly meant a dissociation constant, usually derived from enzyme kinetics or from competition with a known ligand. Read a high Ki as weaker binding.

Assay [1] concerns the target T1, M2 receptor (right atrium) (Rattus norvegicus, UniProt P10980).
T1 construct: the right atrium was isolated; from tissue; host or cells: isolated right atrium of male SD rat
T1 sequence (P10980 1-466): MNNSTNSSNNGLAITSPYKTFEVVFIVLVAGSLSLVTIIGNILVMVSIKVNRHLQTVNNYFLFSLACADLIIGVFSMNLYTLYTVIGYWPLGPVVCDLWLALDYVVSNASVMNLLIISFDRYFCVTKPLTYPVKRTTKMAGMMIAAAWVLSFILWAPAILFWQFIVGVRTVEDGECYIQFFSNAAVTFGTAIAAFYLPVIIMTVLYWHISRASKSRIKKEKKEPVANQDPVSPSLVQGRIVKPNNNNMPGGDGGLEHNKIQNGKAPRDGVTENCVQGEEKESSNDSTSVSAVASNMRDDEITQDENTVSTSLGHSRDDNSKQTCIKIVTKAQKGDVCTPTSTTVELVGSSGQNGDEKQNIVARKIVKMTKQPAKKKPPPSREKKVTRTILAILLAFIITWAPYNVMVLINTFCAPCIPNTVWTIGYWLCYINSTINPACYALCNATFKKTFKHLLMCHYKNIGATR
Briefly: Antagonism to M2 receptor in isolated rat right atrium (carbachol dose-response). The following applies: 32° C. The protocol:
1) Tests for Antagonism to M2 Receptor in an Isolated Rat Right Atrium
These tests were performed according to a conventional method. A male SD strain rat (weighing 300-500 g) was killed by exsanguination, and the right atrium was isolated. This preparation was isometrically suspended in organ bath filled with 20 ml of Krebs-Hanseleit solution (gassed with 95% O2 -5% CO2 and kept at 32° C.) with an initial tension of 0.5 g. The heart rate was recorded with a heart rate counter. After the preparation was equilibrated for 30 minutes, carbachol (10^-9 to 10^-6 M) was cumulatively administered in three-fold increasing doses. Thus, a decrease in heart rate was measured to obtain a dose-response curve for the control experiment. After the preparation was washed with fresh solution to restore the heart rate, a test compound was administered thereto. Ten minutes later, carbachol was cumulatively administered again. Responses to carbachol were expressed as percentages based on the heart rate before the administration of carbachol as 100%. The antagonistic potency (KB value) of the test compound was determined from the degree of shift of the dose-response curve obtained by treatment with individual test compound of the present invention.

The target in the next assay is T2, M3 receptor (trachea) (Rattus norvegicus, UniProt P08483).
T2 construct: the trachea was isolated; from tissue; host or cells: isolated trachea of male SD rat
T2 sequence (P08483 whole entry): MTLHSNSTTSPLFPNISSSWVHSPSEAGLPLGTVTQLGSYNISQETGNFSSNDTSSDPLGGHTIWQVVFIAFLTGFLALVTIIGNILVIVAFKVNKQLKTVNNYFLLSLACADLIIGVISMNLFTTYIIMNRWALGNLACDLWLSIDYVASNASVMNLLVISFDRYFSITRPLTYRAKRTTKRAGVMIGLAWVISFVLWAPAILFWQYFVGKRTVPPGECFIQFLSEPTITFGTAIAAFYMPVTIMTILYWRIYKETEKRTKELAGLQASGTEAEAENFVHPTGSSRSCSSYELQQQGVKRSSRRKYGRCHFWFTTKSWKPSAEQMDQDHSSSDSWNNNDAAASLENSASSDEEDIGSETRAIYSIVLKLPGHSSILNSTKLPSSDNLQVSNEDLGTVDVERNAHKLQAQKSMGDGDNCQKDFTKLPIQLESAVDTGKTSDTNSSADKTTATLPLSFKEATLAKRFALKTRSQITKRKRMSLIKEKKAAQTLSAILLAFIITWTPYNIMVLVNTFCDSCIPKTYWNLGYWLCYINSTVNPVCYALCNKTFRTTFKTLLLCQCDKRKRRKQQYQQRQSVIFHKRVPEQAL
The assay is described as follows: Antagonism to airway M3 receptor in isolated rat trachea (carbachol dose-response). Particulars: for Kb: isolated rat trachea, carbachol, 32° C.; for M2/M3 (ratio of KB): selectivity right atrium M2 over trachea M3, in vitro. How it is done:
2) Tests for Antagonism to the Airway M3 Receptor in an Isolated Rat Right Trachea
These tests were performed according to a conventional method. A male SD strain rat (weighing 300-500 g) was killed by exsanguination, and the trachea was isolated. Annular segments (2 mm wide) were cut out from the trachea and cut transversely at the anterior cartilage part to make an open ring preparation. The preparation was suspended in a Magnus tube filled with 5 ml of Krebs-Hanseleit solution (gassed with 95% O2 -5% CO2 and kept at 32° C.) with an initial tension of 1.0 g and a resting tension of 0.6 g. The tension of the preparation was recorded isometrically. After the preparation was equilibrated for an hour, the preparation was caused to contract twice with 10^-4 M carbachol, and the second contraction induced by carbachol was used as the reference contraction. After the preparation was washed with fresh solution to be restored to the base line, a test compound was administered thereto (or no treatment was given). Ten minutes later, carbachol (10^-8 to 10^-3 M) was cumulatively administered in three-fold increasing doses to obtain a dose-response curve. The dose-response curve was plotted by expressing responses as percentages based on the reference contraction of the preparation as 100%. The antagonistic potency (KB value) of the test compound was determined from the degree of shift of the dose-response curve obtained by treatment with the test compound.

For assay [2], the target named is T3, m3 muscarinic acetylcholine receptor (Homo sapiens, UniProt P20309).
T3 construct: purchased Receptor Biology Inc; host or cells: CHO cells
T3 sequence (P20309 whole entry): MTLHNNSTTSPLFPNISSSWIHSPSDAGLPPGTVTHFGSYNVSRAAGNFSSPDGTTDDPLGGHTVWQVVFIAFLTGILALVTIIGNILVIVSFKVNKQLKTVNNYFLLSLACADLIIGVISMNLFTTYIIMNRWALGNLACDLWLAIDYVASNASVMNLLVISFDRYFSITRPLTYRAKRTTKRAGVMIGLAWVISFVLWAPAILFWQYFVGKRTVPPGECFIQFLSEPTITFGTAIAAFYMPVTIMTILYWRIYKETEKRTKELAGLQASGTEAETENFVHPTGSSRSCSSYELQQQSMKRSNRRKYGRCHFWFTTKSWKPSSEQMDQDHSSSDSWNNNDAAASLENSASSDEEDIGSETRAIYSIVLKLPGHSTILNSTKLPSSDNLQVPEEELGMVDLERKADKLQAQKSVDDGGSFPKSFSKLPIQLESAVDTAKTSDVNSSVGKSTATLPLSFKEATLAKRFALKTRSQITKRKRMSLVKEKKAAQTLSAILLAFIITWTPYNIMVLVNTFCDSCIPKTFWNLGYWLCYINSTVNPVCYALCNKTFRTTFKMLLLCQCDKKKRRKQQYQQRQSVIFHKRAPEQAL
The assay is described as follows: biochemical. Particulars: for Ki: CHO cells expressing m3, 0.2 nM [3H]-N-methylscopolamine, pH 7.4, 120 min, room temperature; for m2/m3 (ratio of Ki): selectivity m2 over m3, binding. The assay is classed as binding. The protocol: (§1) These tests were performed according to a modification of the method of Hargreaves et al. (Br. J. Pharmacol. 107: pp. 494-501, 1992). Thus, CHO cells expressing m2 and m3 muscarinic acetylcholine receptors (Receptor Biology Inc.) were incubated with 0.2 nM [^3 H]-N-methylscopolamine (84Ci/mmol, New England Nuclear, Inc.) and each compound of the present invention to be tested in 0.5 ml of 50 mM tris-HCl--10 mM MgCl2 --1 mM EDTA (pH 7.4) for 120 minutes at room temperature (about 20 to 25° C.), followed by suction filtration with a glass filter (Uni-Filter plate GF/C; Packard Instruments Co., Ind.) and washing four times with 1 ml of ice-cold Tris-HCl buffer. After the filter was dried for 1 hour at 50° C., a scintillator (Miroscinti 0; Packard Instruments Co., Inc.) was added, and the radioactivity of [^3 H]-N-methylscopolamine adsorbed by the filter was counted by a liquid scintillation counter (TopCount™; Packard Instruments Co., Inc.). Non-specific binding of [^3 H]-N-methylscopolamine was measured in the presence of 1 μM N-methylscopolamine, which was added. According to the method of Cheng and Prusoff (Biochem. Pharmacol. 22: pp. 3099-3108, 1973), the binding affinity (Ki value) of the compound of the present invention for muscarinic receptors was calculated from the concentration (IC50) of the test compound which achieved 50% inhibition of the binding of [^3 H]-N-methylscopolamine, labeled ligand.

Assay [3] concerns the target T4, m2 muscarinic acetylcholine receptor (Homo sapiens, UniProt P08172).
T4 construct: purchased Receptor Biology Inc; host or cells: CHO cells
T4 sequence (P08172 1-466): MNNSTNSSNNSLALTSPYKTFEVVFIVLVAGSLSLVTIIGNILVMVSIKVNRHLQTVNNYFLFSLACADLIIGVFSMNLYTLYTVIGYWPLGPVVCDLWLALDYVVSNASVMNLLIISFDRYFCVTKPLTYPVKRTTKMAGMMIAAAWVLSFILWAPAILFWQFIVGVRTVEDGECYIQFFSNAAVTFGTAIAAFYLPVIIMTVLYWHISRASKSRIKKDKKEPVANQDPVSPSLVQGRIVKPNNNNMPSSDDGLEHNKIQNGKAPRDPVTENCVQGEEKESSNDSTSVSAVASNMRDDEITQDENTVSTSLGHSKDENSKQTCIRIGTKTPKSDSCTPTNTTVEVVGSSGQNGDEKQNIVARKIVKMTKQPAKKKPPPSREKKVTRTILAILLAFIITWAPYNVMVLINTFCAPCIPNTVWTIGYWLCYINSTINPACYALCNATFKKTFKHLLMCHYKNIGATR
The assay is described as follows: biochemical. The format is binding. Particulars: CHO cells expressing m2; 0.2 nM [3H]-N-methylscopolamine, pH 7.4, 120 min, room temperature. How it is done:
as §1

A further assay has as its system muscarinic M3 receptor. Briefly: Bronchodilation in dogs (oral administration), methacholine provocation test. The format is in vivo, dog (beagle). The following applies: 0.1 mg/kg, P.O., 4 hrs later. The protocol:
Tests for Antagonism Against Muscarinic M3 Receptor (in vivo)
Tests for Bronchodilation in Dogs (oral administration)
Male beagles of 12 to 24 months of age, weight 10 to 15 kg, were anesthetized with pentobarbital (30 mg/kg, iv.), and the trachea of each dog was intubated. The sensitivity of the airway (methacoline reaction threshold value) was measured at least twice at two weeks' intervals by a methacoline provocation test, and dogs manifesting a reproducible methacoline reaction threshold value^1) were selected. To those dogs whose methacholine reaction threshold value was established, the test compound was orally administered (0.1 mg/kg). Four hours after the administration, a methacoline provocation test was again conducted, and the methacholine reaction threshold value^2) after the administration of the test compound was measured. The brochodilator activity of the test compound was determined by the following equation: [formula]
The methacholine provocation test was conducted using an Astograph TCK-6100H model (Chest). Methacholine chloride was used as brochoconstritor, which was diluted with isotonic sodium chloride solution in 10 grade concentration levels from 40,000 μg/ml to 20,000, 10,000, 5,000, 2,500, 1,250, 625, 312.5, 156 and 78 μg/ml. The test animals were caused to inhale these methacoline aerosols for 1 min. at a time, starting with the lowest concentration upward, and the respiratory resistance was continuously recorded. The concentration of methacoline at which the respiratory resistance reached a value twice its initial level was deemed to be the methacholine threshold value.

Regarding `O=C(N1C[C@H]2CCNCC[C@H]2C1)[C@](O)(c1ccccc1)[C@@H]1CCC(F)(F)C1` [Example 29, 9-{(2R)-2-((1R)-3,3-difluorocyclopentyl)-2-hydroxy-2-phenylacetyl}-cis-4,9-diazabicyclo[5.3.0]decane], the Kb in assay [1] is 230 nM. Also, on M3 receptor (trachea), the Kb is 1.6 nM and the “M2/M3 (ratio of KB)” value is on record as 140. In assay [2], the Ki worked out at 1.2 nM and the “m2/m3 (ratio of Ki)” value worked out at 190. Also, affinity in assay [3] was put at a Ki of 230 nM. Moreover, the “Methacoline Provocation Test Shift value” in the assay on muscarinic M3 receptor came to 22.

In assay [1], `O=C(N1CCC2(CCNC2)CC1)[C@](O)(c1ccccc1)[C@@H]1CCC(F)(F)C1` [Example 26, 8-{(2R)-2-((1R)-3,3-difluorocyclopentyl)-2-hydroxy-2-phenylacetyl}-2,8-diazaspiro[4.5]decane] returned a Kb of 75 nM. On M3 receptor (trachea), the Kb worked out at 0.83 nM and the “M2/M3 (ratio of KB)” value came out at 75. Besides, in assay [2], the Ki was determined as 0.44 nM and the “m2/m3 (ratio of Ki)” value turned out to be 60. This compound also returned a Ki in assay [3] of 27 nM. For the same compound, the “Methacoline Provocation Test Shift value” in the assay on muscarinic M3 receptor stood at 7.1.

Consider `Cl.NC1CCN(C(=O)[C@](O)(c2ccccc2)[C@@H]2CCC(F)(F)C2)CC1` [Example 1, 4-Amino-1-{(2R)-2-((1R)-3,3-difluorocyclopentyl)-2-hydroxy-2-Phenylacetyl}piperidine monohydrochloride], for which, in assay [1], the Kb was 730 nM. At M3 receptor (trachea), the Kb stood at 20 nM and the “M2/M3 (ratio of KB)” value was 37.

Consider `CC1NCCC12CCN(C(=O)[C@](O)(c1ccccc1)[C@@H]1CCC(F)(F)C1)CC2` (single isomer, unassigned) [Example 43 ((IS*)-substance), (1R*)- and (1S*)-8-{(2R)-2-((1R)-3,3-difluorocyclopentyl)-2-hydroxy-2-phenylacetyl}-1-methyl-2,8-diazaspiro[4.5]decane], for which, in assay [2], the Ki amounted to 0.26 nM and the “m2/m3 (ratio of Ki)” value is on record as 80. Moreover, affinity in assay [3] was put at a Ki of 21 nM. The “Methacoline Provocation Test Shift value” with muscarinic M3 receptor came out at 22.

Consider `O=C(N1CC2=C(CNC2)C1)[C@](O)(c1ccccc1)[C@@H]1CCC(F)(F)C1` [Example 35, 3-{(2R)-2-((1R)-3,3-difluorocyclopentyl)-2-hydroxy-2-phenylacetyl}-3,7-diazabicyclo[3.3.0]oct-1(5)-ene], for which the Kb in assay [1] was determined as 2400 nM; on M3 receptor (trachea) it was 8 nM. In addition, the “M2/M3 (ratio of KB)” value on M3 receptor (trachea) was 300. The Ki in assay [2] was 4.2 nM; in assay [3] it was 670 nM. In assay [2], the “m2/m3 (ratio of Ki)” value came to 160. Moreover, the “Methacoline Provocation Test Shift value” with muscarinic M3 receptor came to 5.8.
